We go through 2 molecules from patent US9044527B2, “Wound care products with peracid compositions” (CHD Bioscience, Inc., priority 2011, dated 2015).

For test [1], the system named is methicillin resistant staphylococcus aureus (MRSA). As to the kind of experiment: MRSA streaked blood agar plate treated with PPA film discs (simulated MIC test). The note with it: 6 mm film discs made with 100 ppm and 1000 ppm PPA compound, incubated overnight. The test is classed as cell-based. The text has this:
This bulk film material illustrated in the drawings can be easily fit between layers of dressing or gauze and protected from the moisture in the bandage. […] To test efficacy and stability of the incorporated PPA compound, six millimeter discs were cut out of the PPA treated matrices and placed onto a methicillin resistant staphylococcus aureus (MRSA) streaked blood agar plate. […] This method simulated the well-known minimum inhibitory concentration (MIC) test. The blood agar plates were incubated overnight at optimal temperature and then observed for microbial kill.
The control film disc was the diameter of the grown of the 1000 ppm disc. The discs were placed on the blood agar plate and were dissolved by the moisture from the agar which allowed the PPA compound to migrate out of the film. […] Thus the 1000 ppm ratio of ppm concentration to the circle of kill diameter was greater than for the 100 ppm concentration to the circle diameter in millimeters.

The test system of test [2] is e. coli 25922. As to the kind of experiment: Kirby-Bauer growth inhibition (disk diffusion) assay. The note with it: 10 μg gentamicin disc, 6 mm, 16-18 hours. In kind it is cell-based. Here is the method:
Kirby-Bauer growth inhibition (or disk diffusion susceptibility testing) is used to quantify the efficiency of antibiotics and/or to test the sensitivity of particular rapidly growing bacteria to an antibiotic.
A bacterial inoculum was prepared from log-phase cultures (ATCC e. coli 25922) to a standard density (approximately 1×10^8 CFU/ml, which is equivalent to a 0.5 McFarland turbidity). The inoculum was applied to a culture dish with Muller-Hinton nutrient agar.
Dissolvable thin film biocide preparations were prepared as Examples 1 or 3, but the spiked biocide was used at an original film-pour concentration of 20,000 ppm (recall that when the film-pour dries, it loses approximately 16-25× of its weight through solvent evaporation, and thus the final concentration of the biocide is much higher than the film-pour, although some is lost through evaporation as evidenced by the acetic acid smell during dry-down).
Samples of hydrogel (single FT cycle) were also used in some experiments where spiked biocide films were applied to the hydrogel surface and the bi-layer sample applied to the culture surface.
At the time of infection, test materials are applied to the surface of the agar. After a growth a 35-37° C. in air, for period of 16-18 hours, the diameter of the zone of inhibited bacteria growth can be visualized and measured with calipers. […]
Background: A growth-free zone around the sample is the usual read-out of agar diffusion tests.

For test [3], the system named is e. coli 25922. The conditions noted are these: 10 μg gentamicin disc, 6 mm; cited from earlier work.

With `CC(=O)C(=O)OO` [PPA compound, peroxy pyruvic acid], the “kill of MRSA (circle of kill diameter)” value in test [1] is “in proportion to the PPA concentration in the disc”.

As to gentamicin [Sensi-Disc], the “control zone inhibition diameter” value with e. coli 25922 [2] is reported as “agrees with published quality-control data”. The “zone inhibition diameter, published quality-control data” value in the test with e. coli 25922 [3] was 19-26 mm.
